# Columns and labels:
# [1] = test system: primary inguinal fat cells; test: Ucp1 mRNA in primary inguinal fat cells; assay type: cell-based, mice; settings: 10 μM peptide
# Experimental: FIG. 18A-FIG. 18B show mRNA and protein levels of indicated genes. 1 mg/kg irisin was injected to 8-week old mice every other day for 6 days. mRNA levels of indicated genes in inguinal fat were analyzed by qRT-PCR. Cyclophilin was used for housekeeping gene (FIG. 18A). Inguinal fats were also lysed to detect the indicated protein level using immunoblot analysis (FIG. 18B). FIGS. 18C and 18D show mRNA and protein levels of indicated genes. Mice were treated and analyzed as (A-B) with addition of coinjection of […] control RGD peptide or cyclo RGDyK (cRGDyK). mRNA levels of indicated genes in inguinal fat were analyzed by qRT-PCR. Cyclophilin was used for house-keeping gene (FIG. 18C). Inguinal fats were also lysed to detect the indicated protein level using immunoblot analysis (FIG. 18D). […] Ucp1 mRNA level was analyzed by qRT-PCR. […]
# Inguinal fat tissue from 6 weeks old mice was dissected and washed with PBS, minced and digested for 1 hour at 37° C. in PBS containing 10 mM CaCl2, 2.4 U/ml dispase II (Roche) and 10 mg/ml collagenase D (Roche). […] After that, cells were maintained in 1 μM rosiglitazone in the presence of 0, 0.5, 5 or 50 ng/ml recombinant […] his-tag irisin protein for 4 days with medium change every other day. mRNA levels were analyzed as described in gene expression analysis. […]
# his-tag integrins = test: Irisin-integrin binding in presence of RGDS or control peptide, co-immunoprecipitation; parameters: species or system human; settings: 100 nM flag-tag irisin, 5 nM his-tag integrins, 10 uM peptide, vs control RGD peptide
# Experimental: 100 nM flag-tag irisin was incubated with 5 nM of indicated integrins with his-tag in the presence of RGDS peptide or its control peptide (10 uM). This was followed by immunoprecipitation using anti-his-tag agarose. Co-precipitated irisin was analyzed by immunoblot analysis with antibody against flag tag.
# Certain materials and methods were used to generate the results described herein. For example, the data shown in FIG. 1A resulted from MLO-Y4 (an osteocyte-like cell line) cells treated with the indicated concentration of irisin and hydrogen peroxide for 4 hours. Cells were stained with Hoechst 33342 (ThermoFisher Scientific, catalog number H3570) and Eth-D1 (ThermoFisher Scientific, catalog number E1169) and analyzed to determine the percentage of cell death using ImageJ. […] Co-precipitated irisin was analyzed by immunoblot analysis against flag tag (Sigma Aldrich, catalog number A8592). The data shown in FIGS. 5A and 5B were generated from MLO-Y4 cells treated and analyzed as in the experiments used to generate the data shown in FIG. 2D, except that pre-treatment of 100 nM RGDS (FIG. 5A) or echistatin (R & D Systems Inc., catalog number 3202/100U) (FIG. 5B) for 10 minutes was performed before irisin treatment. […] Sclerostin mRNA level was analyzed by qPCR (FIG. 7A). […]
Compound,effect on irisin-induced gene expression (Ucp1) [1],effect on irisin binding to integrins (his-tag integrins),effect on irisin binding to integrins (his-tag integrins; listed as RGDS)
N=C(N)NCCC[C@@H]1NC(=O)[C@H](CCCCN)NC(=O)[C@@H](Cc2ccc(O)cc2)NC(=O)[C@H](CC(=O)O)NC(=O)CNC1=O [cyclo RGDyK],prevented irisin-induced gene expression,–,–
"RGDS peptide: classical integrin competitive inhibitory peptide, commercially available form of the RGD peptide",–,inhibited much of the irisin binding,blocked
